Results reported in US20110082130A1 (LIGAND PHARMACEUTICALS, INC., priority 2006, published 2011).
pKi: −log10 of the molar value.

Target: T1, chimeric human H3 receptor (Homo sapiens, UniProt Q9Y5N1)
T1 construct: made in house; host or cells: Sf9 insect cells (baculovirus); P2 membrane preparation
Assay: Chimeric human H3 receptor GTP binding assay (agonist-stimulated GTP-gamma35S binding, Example 7)
Assay type: biochemical
Settings: Table II; "*" = Ki in assay of Example 7 less than 1 micromolar
Procedure, shortened: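 Sf9 membranes co-expressing chimeric human H3 receptor and heterotrimeric G-protein, 35 μg/tube, in pH 7.4 Tris buffer with 10 μM GDP. Test compounds (10^−10–10^−6 M) competed against 1 μM histamine, […] GTP-gamma35S, 60 min at room temperature. Filter-bound radioactivity counted; IC50 converted to Ki by Cheng-Prusoff. Agonism/inverse agonism tested without histamine (EC50).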

T1 sequence (Q9Y5N1 with tags, fused parts or gaps): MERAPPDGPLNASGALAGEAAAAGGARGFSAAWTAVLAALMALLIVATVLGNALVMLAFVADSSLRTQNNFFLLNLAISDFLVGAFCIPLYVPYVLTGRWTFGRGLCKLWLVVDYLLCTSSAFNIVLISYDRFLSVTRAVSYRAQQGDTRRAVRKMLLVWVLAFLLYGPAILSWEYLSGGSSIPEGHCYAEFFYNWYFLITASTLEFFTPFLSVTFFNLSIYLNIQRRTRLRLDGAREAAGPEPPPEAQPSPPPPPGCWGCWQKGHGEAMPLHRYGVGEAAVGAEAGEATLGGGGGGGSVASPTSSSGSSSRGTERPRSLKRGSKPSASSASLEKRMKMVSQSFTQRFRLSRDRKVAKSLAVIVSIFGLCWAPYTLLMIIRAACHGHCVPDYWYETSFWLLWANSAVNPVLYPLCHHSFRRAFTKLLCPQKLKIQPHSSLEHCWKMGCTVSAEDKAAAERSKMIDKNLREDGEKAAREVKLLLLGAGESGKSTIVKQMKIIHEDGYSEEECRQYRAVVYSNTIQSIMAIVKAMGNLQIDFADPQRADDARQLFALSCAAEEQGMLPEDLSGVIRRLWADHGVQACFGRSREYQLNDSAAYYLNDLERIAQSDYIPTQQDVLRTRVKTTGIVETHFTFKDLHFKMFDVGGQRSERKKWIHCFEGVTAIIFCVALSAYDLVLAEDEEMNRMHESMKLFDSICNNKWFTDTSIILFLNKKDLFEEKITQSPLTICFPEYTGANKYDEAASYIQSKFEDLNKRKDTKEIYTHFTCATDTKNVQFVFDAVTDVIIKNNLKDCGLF

pKi, > 6.00:
O=C(CN1CCc2nccnc2C1)N1CCN(C2CCC2)CC1 [Compound 228, 6-[2-(4-cyclobutylpiperazin-1-yl)-2-oxoethyl]-5,6,7,8-tetrahydropyrido[3,4-b]pyrazine]
O=C(CN1CCc2cc(-n3cc4ccccc4n3)ccc2C1)N1CCN(C2CCC2)CC1 [Compound 229, 2-[2-(4-cyclobutylpiperazin-1-yl)-2-oxoethyl]-6-(2H-indazol-2-yl)-1,2,3,4-tetrahydroisoquinoline]
O=C(CN1CCc2cc(-n3ncc4ccccc43)ccc2C1)N1CCN(C2CCC2)CC1 [Compound 230, 2-[2-(4-cyclobutylpiperazin-1-yl)-2-oxoethyl]-6-(1H-indazol-1-yl)-1,2,3,4-tetrahydroisoquinoline]
O=C(CN1CCc2cc(-c3ccc4nccn4c3)ccc2C1)N1CCN(C2CCC2)CC1 [Compound 231, 2-[2-(4-cyclobutylpiperazin-1-yl)-2-oxoethyl]-6-imidazo[1,2-a]pyridin-6-yl-1,2,3,4-tetrahydroisoquinoline]
O=C(CN1CCc2cc(-c3cncnc3)nnc2C1)N1CCN(C2CCC2)CC1 [Compound 232, 7-[2-(4-cyclobutylpiperazin-1-yl)-2-oxoethyl]-3-pyrimidin-5-yl-5,6,7,8-tetrahydropyrido[3,4-c]pyridazine]
O=C(CN1CCc2cc(-c3cccc(F)c3)nnc2C1)N1CCN(C2CCC2)CC1 [Compound 233, 7-[2-(4-cyclobutylpiperazin-1-yl)-2-oxoethyl]-3-(3-fluorophenyl)-5,6,7,8-tetrahydropyrido[3,4-c]pyridazine]
O=C(CN1CCc2c(cnn2-c2ccc(F)cc2)C1)N1CCN(C2CCC2)CC1 [Compound 234, 5-[2-(4-cyclobutylpiperazin-1-yl)-2-oxoethyl]-1-(4-fluorophenyl)-4,5,6,7-tetrahydro-1H-pyrazolo[4,3-c]pyridine]
O=C(CN1CCc2c(cnn2-c2cccc(F)c2)C1)N1CCN(C2CCC2)CC1 [Compound 235, 5-[2-(4-cyclobutylpiperazin-1-yl)-2-oxoethyl]-1-(3-fluorophenyl)-4,5,6,7-tetrahydro-1H-pyrazolo[4,3-c]pyridine]
O=C(CN1CCc2nn(-c3ccc(F)cc3)cc2C1)N1CCN(C2CCC2)CC1 [Compound 236, 5-[2-(4-cyclobutylpiperazin-1-yl)-2-oxoethyl]-2-(4-fluorophenyl)-4,5,6,7-tetrahydro-2H-pyrazolo[4,3-c]pyridine]
O=C(CN1CCc2nn(-c3ccc(C(F)(F)F)cc3)cc2C1)N1CCN(C2CCC2)CC1 [Compound 237, 5-[2-(4-cyclobutylpiperazin-1-yl)-2-oxoethyl]-2-[4-(trifluoromethyl)phenyl]-4,5,6,7-tetrahydro-2H-pyrazolo[4,3-c]pyridine]
COc1ccc(-n2cc3c(n2)CCN(CC(=O)N2CCN(C4CCC4)CC2)C3)cc1 [Compound 238, 5-[2-(4-cyclobutylpiperazin-1-yl)-2-oxoethyl]-2-(4-methoxyphenyl)-4,5,6,7-tetrahydro-2H-pyrazolo[4,3-c]pyridine]
CC1(C)CN(CC(=O)N2CCN(C3CCC3)CC2)Cc2cnc(N3CCOCC3)nc21 [Compound 239, 6-[2-(4-cyclobutylpiperazin-1-yl)-2-oxoethyl]-8,8-dimethyl-2-morpholin-4-yl-5,6,7,8-tetrahydropyrido[4,3-d]pyrimidine]
O=C(CN1CCc2nc(N3CCOCC3)cnc2C1)N1CCN(C2CCC2)CC1 [Compound 240, 6-[2-(4-cyclobutylpiperazin-1-yl)-2-oxoethyl]-2-morpholin-4-yl-5,6,7,8-tetrahydropyrido[3,4-b]pyrazine]
O=C(CN1CCc2ncc(N3CCOCC3)nc2C1)N1CCN(C2CCC2)CC1 [Compound 241, 6-[2-(4-cyclobutylpiperazin-1-yl)-2-oxoethyl]-3-morpholin-4-yl-5,6,7,8-tetrahydropyrido[3,4-b]pyrazine]
O=C(CN1CCc2nc(N3CCC(F)(F)C3)ccc2C1)N1CCN(C2CCC2)CC1 [Compound 242, 6-[2-(4-cyclobutylpiperazin-1-yl)-2-oxoethyl]-2-(3,3-difluoropyrrolidin-1-yl)-5,6,7,8-tetrahydro-1,6-naphthyridine]
NC(=O)c1cnn(-c2ccc3c(c2)CCN(CC(=O)N2CCN(C4CCC4)CC2)C3)c1 [Compound 243, 1-{2-[2-(4-cyclobutylpiperazin-1-yl)-2-oxoethyl]-1,2,3,4-tetrahydroisoquinolin-6-yl}-1H-pyrazole-4-carboxamide]
N#Cc1cnn(-c2ccc3c(c2)CCN(CC(=O)N2CCN(C4CCC4)CC2)C3)c1 [Compound 244, 1-{2-[2-(4-cyclobutylpiperazin-1-yl)-2-oxoethyl]-1,2,3,4-tetrahydroisoquinolin-6-yl}-1H-pyrazole-4-carbonitrile]
CCN(C)c1ccc2c(n1)CCN(CC(=O)N1CCN(C3CCC3)CC1)C2 [Compound 245, 6-[2-(4-cyclobutylpiperazin-1-yl)-2-oxoethyl]-N-ethyl-N-methyl-5,6,7,8-tetrahydro-1,6-naphthyridin-2-amine]
CN(C)c1ncc2c(n1)CCN(CC(=O)N1CCN(C3CCC3)CC1)C2 [Compound 246, 6-[2-(4-cyclobutylpiperazin-1-yl)-2-oxoethyl]-N,N-dimethyl-5,6,7,8-tetrahydropyrido[4,3-d]pyrimidin-2-amine]
O=C(CN1CCc2nc(-c3ccccc3)ncc2C1)N1CCN(C2CCC2)CC1 [Compound 247, 6-[2-(4-cyclobutylpiperazin-1-yl)-2-oxoethyl]-2-phenyl-5,6,7,8-tetrahydropyrido[4,3-d]pyrimidine]
O=C(CN1CCc2nn(-c3ncccn3)cc2C1)N1CCN(C2CCC2)CC1 [Compound 248, 5-[2-(4-cyclobutylpiperazin-1-yl)-2-oxoethyl]-2-pyrimidin-2-yl-4,5,6,7-tetrahydro-2H-pyrazolo[4,3-c]pyridine]
CC(=O)Cc1ccc2c(c1)CCN(CC(=O)N1CCN(C3CCC3)CC1)C2 [Compound 249, 1-{2-[2-(4-cyclobutylpiperazin-1-yl)-2-oxoethyl]-1,2,3,4-tetrahydroisoquinolin-6-yl}acetone]
CC(O)Cc1ccc2c(c1)CCN(CC(=O)N1CCN(C3CCC3)CC1)C2 (stereo not shown) [Compound 250, 1-{2-[2-(4-cyclobutylpiperazin-1-yl)-2-oxoethyl]-1,2,3,4-tetrahydroisoquinolin-6-yl}propan-2-ol]
O=C(CN1CCc2c(cnn2-c2cncnc2)C1)N1CCN(C2CCC2)CC1 [Compound 251, 5-[2-(4-cyclobutylpiperazin-1-yl)-2-oxoethyl]-1-pyrimidin-5-yl-4,5,6,7-tetrahydro-1H-pyrazolo[4,3-c]pyridine]
O=C(CN1CCc2nn(-c3cncnc3)cc2C1)N1CCN(C2CCC2)CC1 [Compound 252, 5-[2-(4-cyclobutylpiperazin-1-yl)-2-oxoethyl]-2-pyrimidin-5-yl-4,5,6,7-tetrahydro-2H-pyrazolo[4,3-c]pyridine]
O=C(CN1CCc2nn(-c3cccnn3)cc2C1)N1CCN(C2CCC2)CC1 [Compound 255, 5-[2-(4-cyclobutylpiperazin-1-yl)-2-oxoethyl]-2-pyridazin-3-yl-4,5,6,7-tetrahydro-2H-pyrazolo[4,3-c]pyridine]
COc1ncc(-n2cc3c(n2)CCN(CC(=O)N2CCN(C4CCC4)CC2)C3)cn1 [Compound 256, 5-[2-(4-cyclobutylpiperazin-1-yl)-2-oxoethyl]-2-(2-methoxypyrimidin-5-yl)-4,5,6,7-tetrahydro-2H-pyrazolo[4,3-c]pyridine]
COc1ncc(-n2ncc3c2CCN(CC(=O)N2CCN(C4CCC4)CC2)C3)cn1 [Compound 257, 5-[2-(4-cyclobutylpiperazin-1-yl)-2-oxoethyl]-1-(2-methoxypyrimidin-5-yl)-4,5,6,7-tetrahydro-1H-pyrazolo[4,3-c]pyridine]
O=C(CN1CCc2nn(-c3ccc(N4CCCC4)nn3)cc2C1)N1CCN(C2CCC2)CC1 [Compound 258, 5-[2-(4-cyclobutylpiperazin-1-yl)-2-oxoethyl]-2-(6-pyrrolidin-1-ylpyridazin-3-yl)-4,5,6,7-tetrahydro-2H-pyrazolo[4,3-c]pyridine]
CN(C)c1ccc(-n2cc3c(n2)CCN(CC(=O)N2CCN(C4CCC4)CC2)C3)nn1 [Compound 259, 6-{5-[2-(4-cyclobutylpiperazin-1-yl)-2-oxoethyl]-4,5,6,7-tetrahydro-2H-pyrazolo[4,3-c]pyridin-2-yl}-N,N-dimethylpyridazin-3-amine]
O=C(CN1CCc2nn(-c3ccc(C4CC4)nn3)cc2C1)N1CCN(C2CCC2)CC1 [Compound 260, 5-[2-(4-cyclobutylpiperazin-1-yl)-2-oxoethyl]-2-(6-cyclopropylpyridazin-3-yl)-4,5,6,7-tetrahydro-2H-pyrazolo[4,3-c]pyridine]
Cc1ccc(-n2cc3c(n2)CCN(CC(=O)N2CCN(C4CCC4)CC2)C3)nc1 [Compound 261, 5-[2-(4-cyclobutylpiperazin-1-yl)-2-oxoethyl]-2-(5-methylpyridin-2-yl)-4,5,6,7-tetrahydro-2H-pyrazolo[4,3-c]pyridine]
Cn1cc(-n2cc3c(n2)CCN(CC(=O)N2CCN(C4CCC4)CC2)C3)ccc1=O [Compound 262, 5-{5-[2-(4-cyclobutylpiperazin-1-yl)-2-oxoethyl]-4,5,6,7-tetrahydro-2H-pyrazolo[4,3-c]pyridin-2-yl}-1-methylpyridin-2(1H)-one]
Cn1cc(-n2ncc3c2CCN(CC(=O)N2CCN(C4CCC4)CC2)C3)ccc1=O [Compound 263, 5-{5-[2-(4-cyclobutylpiperazin-1-yl)-2-oxoethyl]-4,5,6,7-tetrahydro-1H-pyrazolo[4,3-c]pyridin-1-yl}-1-methytpyridin-2(1H)-one]
